# Measurements published in patent US20080125395A1, “COMPOSITIONS AND METHODS FOR THE TREATMENT OF SKIN” (priority 1999, published 2008).
# Test system: rosacea
# Assay: topical treatment of rosacea in human subjects (case reports)
# Format: in vivo
# Conditions: long-term use by subjects with facial rosacea
# Source text: A second subject was a person who suffered from disfiguring rosacea on their face for 14 years. […] After failure of the cortisone treatment to provide adequate relief, the subject used an ascorbic acid, zinc sulfate and tyrosine formulation once a day. The ascorbic acid composition provided slight relief, but the subject's rosacea never cleared up adequately. The subject then used the same ascorbic acid formulation to which 20% (w/v) glucosamine had been added.
# FIG. 4 provides an exemplary depiction of the cosmetic and therapeutic benefits of the present invention. A subject used an embodiment of the present invention containing glucosamine for one week. Before using the embodiment (panel A), the subject suffered from disfiguring rosacea blemishes on their face. […] In one week, the size of blemishes has decreased and the intensity of the rosacea has abated, although some scarring (resulting from years of severe inflammatory lesions that had not responded to previous treatments) remains.
smiles,measurement,value
C[C@]12CCC(=O)C=C1CC[C@@H]1[C@@H]2[C@@H](O)C[C@@]2(C)[C@H]1CC[C@]2(O)C(=O)CO [hydrocortisone],control of rosacea inflammation,partially control
